Source: patent US5948792A, “Fluorine-containing 1,4-disubstituted piperidine derivatives” (Banyu Pharmaceutical Co., Ltd., priority 1996, dated 1999)

Legend:
Muscarinic M2 receptor = biological target: T1, Muscarinic M2 receptor (Homo sapiens, UniProt P08172); test: Inhibition of binding of [3H]-N-methylscopolamine to muscarinic M2 receptor; details: CHO cell membranes expressing cloned human receptor; 0.2 nM [3H]-N-methylscopolamine, pH 7.4, 2 hours, 25° C; read-out: Ki M2 (inhibitory effects on binding to muscarinic M2 receptor)
T1 construct: purchased Receptor Biology, Inc; host or cells: CHO cells (membranes)
T1 sequence (P08172 1-466): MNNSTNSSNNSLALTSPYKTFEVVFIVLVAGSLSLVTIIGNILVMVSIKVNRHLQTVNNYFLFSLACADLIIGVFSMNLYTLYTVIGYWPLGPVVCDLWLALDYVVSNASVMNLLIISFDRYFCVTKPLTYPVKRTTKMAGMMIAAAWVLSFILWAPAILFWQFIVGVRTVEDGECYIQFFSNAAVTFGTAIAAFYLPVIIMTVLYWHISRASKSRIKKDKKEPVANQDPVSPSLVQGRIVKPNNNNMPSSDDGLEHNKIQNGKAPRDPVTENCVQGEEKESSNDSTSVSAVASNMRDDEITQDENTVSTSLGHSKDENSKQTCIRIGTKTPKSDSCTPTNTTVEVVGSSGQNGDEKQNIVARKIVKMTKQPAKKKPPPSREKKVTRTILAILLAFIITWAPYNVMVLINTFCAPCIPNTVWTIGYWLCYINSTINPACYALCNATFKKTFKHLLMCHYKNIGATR
Protocol: (§1) Tests on Inhibition of Binding to Muscarinic Receptors
(§2) These tests were performed according to a modification of the method of Hargreaves et al. (Br. J. Pharmacol. 107: 494-501, 1992). Membranes from CHO cells expressing cloned human m1-m5 (Receptor Biology, Inc.) were incubated with 0.2 nM [^3 H]-N-methylscopolamine and each a compound of the present invention to be tested in 0.5 ml of 50 mM Tris-HCl-10 mM MgCl2 -1 mM EDTA (pH 7.4) for 2 hours at 25° C. Free and membrane-bound [^3 H]-N-methylscopolamine were separated by filtration over glass filters (UniFilter-GF/C; Packard Instruments Co., Inc.) using cell harvester (Filtermate™ 196; Packard Instruments Co., Inc.). Then the filter was washed four times with 1 ml of ice-cold Tris-HCl (pH 7.4) and dried at 50° C. After adding a scintillator (Microscinti 0; Packard Instruments Co., Inc.), the radioactivity was counted by a liquid scintillation counter (TopCount™; Packard Instruments Co., Inc.). Non-specific binding was measured in the presence of 1 μM N-methylscopolamine.

Muscarinic M3 receptor [1] = biological target: T2, Muscarinic M3 receptor (Homo sapiens, UniProt P20309); test: Inhibition of binding of [3H]-N-methylscopolamine to muscarinic M3 receptor; details: for Ki: CHO cell membranes expressing cloned human receptor, 0.2 nM [3H]-N-methylscopolamine, pH 7.4, 2 hours, 25° C, read-out: Ki M3 (inhibitory effects on binding to muscarinic M3 receptor); for M2/M3 (ratio of binding Ki): selectivity ratio of Ki values
T2 construct: purchased Receptor Biology, Inc; host or cells: CHO cells (membranes)
Protocol: as §1, §2

Muscarinic M3 Receptor [2] = biological target: T3, Muscarinic M3 Receptor (Rattus norvegicus, UniProt P08483); test: Bronchodilation in rats (i.v.), inhibition of acetylcholine-induced increase in airway resistance; format: in vivo; details: iv, 5 min, acetylcholine 50 μg/kg i.v. 5 minutes after test compound, read-out: Inhibition of Airway Contraction ED50 iv
T3 construct: male rats of the Sprague-Dawley strain; from tissue; host or cells: airways of living male Sprague-Dawley rats (in vivo)
Protocol: Tests for Antagonism Against Muscarinic M3 Receptor (in vivo)
1-A) Tests for Bronchodilation in Rats (i.v.).
Eight- to eleven-weeks-old male rats of the Sprague-Dawley strain, weighing 380-420 g, were anesthetized with urethane (750 mg/kg. i.p.) and α-chloralose (37.5 mg/kg, i.p.). The bronchus of each rat was intubated, and the right jugular vein was cannulated for drug administration. […] To evoke an increase in airway resistance, acetylcholine (50 μg/kg, i.v.) was administered to the animals. The acetylcholine-induced airway resistance increase was measured 5 minutes before and 5 minutes after administration of test compound, and the ratio of the airway resistance of the latter to the former was calculated. In controls, isotonic sodium chloride solution was used in place of the test compounds and otherwise identical procedures were repeated, the calculated ratio being set to be 100%.

airway M3 receptor = biological target: T4, airway M3 receptor (Rattus norvegicus, UniProt P08483); test: Antagonism to the airway M3 receptor in an isolated rat trachea (in vitro); format: cell-based
T4 construct: the trachea was isolated; from tissue; host or cells: isolated trachea of male SD strain rat
Protocol: (§3) Tests for Antagonism to Muscarinic Receptors (in vitro)
2) Tests for Antagonism to the Airway M3 Receptor in an Isolated Rat Trachea
These tests were performed according to a conventional method. A male SD strain rat (weighing 300-500 g) was killed by exsanguination, and the trachea was isolated. Annular segments (2 mm wide) were cut out from the trachea and cut transversely at the anterior cartilage part to make open ring preparation. A preparation was suspended in a Magnus tube filled with 5 ml of Krebs-Henseleit solution (gassed with 95% O2 -5% CO2 and kept at 32° C.) with an initial tension of 1.0 g and a resting tension of 0.6 g. The tension of the preparation was recorded isometrically. After being equilibrated for an hour, the preparation was made to contract twice by treatment with 10^-4 M carbachol, and the second contraction induced by carbachol was used as the reference contraction. After the preparation was washed with fresh solution to be restored to the base line, a test compound was administered thereto (or no treatment was given). Ten minutes later, carbachol (10^-8 to 10^-3 M) was cumulatively administered in three-fold increasing doses to obtain a dose-response curve. The dose-response curve was plotted by expressing responses as percentages based on the reference contraction of the preparation as 100%. The antagonistic potency (K^B value) of the test compound was determined from the degree of shift of the dose-response curve obtained by treatment with the test compound.

M2 receptor = biological target: T5, M2 receptor (Rattus norvegicus, UniProt P10980); test: Antagonism to M2 receptor in an isolated rat right atrium (in vitro); format: cell-based; details: carbachol-induced decrease in heart rate
T5 construct: the right atrium was isolated; from tissue; host or cells: isolated right atrium of male SD strain rat
T5 sequence (P10980 1-466): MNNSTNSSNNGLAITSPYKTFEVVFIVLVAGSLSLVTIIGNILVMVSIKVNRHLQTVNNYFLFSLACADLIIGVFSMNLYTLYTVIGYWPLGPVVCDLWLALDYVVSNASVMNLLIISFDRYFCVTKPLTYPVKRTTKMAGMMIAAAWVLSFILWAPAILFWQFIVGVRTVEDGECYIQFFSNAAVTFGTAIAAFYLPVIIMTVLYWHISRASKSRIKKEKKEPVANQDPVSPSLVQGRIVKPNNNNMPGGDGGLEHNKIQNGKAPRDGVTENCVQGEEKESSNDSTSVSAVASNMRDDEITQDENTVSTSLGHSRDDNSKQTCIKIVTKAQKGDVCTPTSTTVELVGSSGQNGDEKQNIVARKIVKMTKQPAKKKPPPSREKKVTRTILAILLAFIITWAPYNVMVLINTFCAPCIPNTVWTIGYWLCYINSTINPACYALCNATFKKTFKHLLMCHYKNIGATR
Protocol: as §3
1) Tests for Antagonism to M2 receptor in an Isolated Rat Right Atrium
These tests were performed according to a conventional method. A male SD strain rat (weighing 300-500 g) was killed by exsanguination, and the right atrium was isolated. This preparation was isometrically suspended in organ bath filled with 20 ml of Krebs-Henseleit solution (gassed with 95% O2 -5% CO2 and kept at 32° C.) with an initial tension of 0.5 g. The heart rate was recorded with a heart rate counter. After the preparation was equilibrated for 30 minutes, carbachol (10^-9 to 10^-6 M) was cumulatively administered in three-fold increasing doses. Thus, a decrease in heart rate was measured to obtain a dose-response curve for the control experiment. After the preparation was washed with fresh solution to restore the heart rate, a test compound was administered thereto. Ten minutes later, carbachol was cumulatively administered again. Responses to carbachol were expressed as percentages based on the heart rate before administration of carbachol as 100%. The antagonistic potency (KB value) of the test compound was determined from the degree of shift of the dose-response curve obtained by treatment with individual test compound of the present invention.

T2 sequence (P20309 whole entry): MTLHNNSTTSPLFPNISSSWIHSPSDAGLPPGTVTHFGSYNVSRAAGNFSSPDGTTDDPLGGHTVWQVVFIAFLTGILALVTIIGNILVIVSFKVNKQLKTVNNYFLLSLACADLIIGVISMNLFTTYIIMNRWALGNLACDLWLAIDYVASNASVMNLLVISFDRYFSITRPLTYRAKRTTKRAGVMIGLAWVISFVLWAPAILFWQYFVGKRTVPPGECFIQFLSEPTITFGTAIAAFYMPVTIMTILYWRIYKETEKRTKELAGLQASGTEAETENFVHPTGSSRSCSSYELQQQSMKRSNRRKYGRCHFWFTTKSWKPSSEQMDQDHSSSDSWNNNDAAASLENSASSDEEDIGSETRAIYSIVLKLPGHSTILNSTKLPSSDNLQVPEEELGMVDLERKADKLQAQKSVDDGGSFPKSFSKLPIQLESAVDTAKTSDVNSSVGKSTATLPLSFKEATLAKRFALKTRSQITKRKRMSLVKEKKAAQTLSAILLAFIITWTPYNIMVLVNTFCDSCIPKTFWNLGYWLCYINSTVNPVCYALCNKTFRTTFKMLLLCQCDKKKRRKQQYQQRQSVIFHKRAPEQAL
T4 sequence (P08483 whole entry): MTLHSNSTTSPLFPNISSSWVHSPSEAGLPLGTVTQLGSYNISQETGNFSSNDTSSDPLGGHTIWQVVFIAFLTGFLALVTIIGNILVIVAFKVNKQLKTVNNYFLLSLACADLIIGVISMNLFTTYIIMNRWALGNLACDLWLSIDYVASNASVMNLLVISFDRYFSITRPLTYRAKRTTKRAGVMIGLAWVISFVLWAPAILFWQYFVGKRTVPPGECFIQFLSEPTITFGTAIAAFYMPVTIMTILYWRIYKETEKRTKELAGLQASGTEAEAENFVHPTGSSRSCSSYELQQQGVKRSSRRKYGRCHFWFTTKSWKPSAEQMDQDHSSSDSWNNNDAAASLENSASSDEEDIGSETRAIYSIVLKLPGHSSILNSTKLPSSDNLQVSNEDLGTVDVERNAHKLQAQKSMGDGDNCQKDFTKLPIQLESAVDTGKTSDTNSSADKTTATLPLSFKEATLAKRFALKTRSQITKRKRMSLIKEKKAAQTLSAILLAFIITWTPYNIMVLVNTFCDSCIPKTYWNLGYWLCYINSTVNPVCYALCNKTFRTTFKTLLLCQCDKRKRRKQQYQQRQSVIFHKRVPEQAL
T3 sequence (P08483 whole entry): as above

Row | SMILES | Ki (Muscarinic M2 receptor) [nM] | Ki (Muscarinic M3 receptor [1]) [nM] | M2/M3 (ratio of binding Ki) (Muscarinic M3 receptor [1]) | ED50 (Muscarinic M3 Receptor [2]) [mg/kg] | Kb (airway M3 receptor; isolated rat trachea, carbachol-induced contraction) [nM] | M2/M3 (ratio of KB) (airway M3 receptor; selectivity ratio of KB values, right atrium M2 / trachea M3) | Kb (M2 receptor) [nM]
1 | Nc1cc(N)cc(CN2CCC(NC(=O)[C@](O)(c3ccccc3)[C@@H]3CCC(F)(F)C3)CC2)c1 [Example 27, (2R)-N-[1-(3,5-diaminobenzyl)piperidin-4-yl]-2-[(1R)-3,3-difluorocyclopentyl]-2-hydroxy-2-phenylacetamide] | 4200 | 20 | 210 |  |  |  | 
2 | O=C(NC1CCN(Cc2ccoc2)CC1)[C@](O)(c1ccccc1)[C@@H]1CCC(F)(F)C1 [Example 12, (2R)-N-[1-(3-furylmethyl)piperidin-4-yl]-2-[(1R)-3,3-difluorocyclopentyl]-2-hydroxy-2-phenylacetamide] | 8600 |  |  |  |  |  | 
3 | Cc1cccc(CN2CCC(NC(=O)[C@](O)(c3ccccc3)[C@@H]3CCC(F)(F)C3)CC2)n1 [Example 10, (2R)-N-[1-(6-methylpyridin-2-ylmethyl)piperidin-4-yl]-2-[(1R)-3,3-difluorocyclopentyl]-2-hydroxy-2-phenylacetamide] | 17000 | 8.9 | 1900 |  |  |  | 
4 | COc1cccc(CN2CCC(NC(=O)[C@](O)(c3ccccc3)[C@@H]3CCC(F)(F)C3)CC2)c1 [Example 15, (2R)-N-[1-(3-methoxybenzyl)piperidin-4-yl]-2-[(1R)-3,3-difluorocyclopentyl]-2hydroxy-2-phenylacetamide] | 1000 |  |  |  |  |  | 
5 | O=C(NC1CCN(Cc2ccccn2)CC1)[C@](O)(c1ccccc1)[C@@H]1CCC(F)(F)C1 [Example 14, (2R)-N-[1-(2-pyridylmethyl)piperidin-4-yl]-2-[(1R)-3,3-difluorocyclopentyl]-2-hydroxy-2-phenylacetamide] | 1400 | 10 | 140 |  |  |  | 
6 | COc1cc(N)cc(CN2CCC(NC(=O)[C@](O)(c3ccccc3)[C@@H]3CCC(F)(F)C3)CC2)c1.Cl.Cl [Example 31, (2R)-N-[1-(3-amino-5-methoxybenzyl)piperidin-4-yl]-2-[(1R)-3,3-difluorocyclopentyl]-2-hydroxy-2-phenylacetamide dihydrochloride] | 10000 | 19 | 520 |  |  |  | 
7 | CC(C)=CCCN1CCC(NC(=O)[C@](O)(c2ccccc2)[C@@H]2CCC(F)(F)C2)CC1 [Example 1, (2R)-N-[1-(4-methyl-3-pentenyl)piperidin-4-yl]-2-[(1R)-3,3-difluorocyclopentyl]-2-hydroxy-2-phenylacetamide] | 3200 | 5.5 | 590 | 0.033 | 6.3 | 160 | 1000
8 | CN1C2CCC1CC(OC(=O)C(CO)c1ccccc1)C2 (stereo not shown) [atoropine, reference compound] |  |  |  | 0.0043 |  |  | 
9 | Cc1cc(N)cc(CN2CCC(NC(=O)[C@](O)(c3ccccc3)[C@@H]3CCC(F)(F)C3)CC2)c1.Cl.Cl [Example 22, (2R)-N-[1-(3-amino-5-methylbenzyl)piperidin-4-yl]-2-[(1R)-3,3-difluorocyclopentyl]-2-hydroxy-2-phenylacetamide dihydrochloride] | 13000 | 19 | 680 |  |  |  | 
10 | COc1cc(N)nc(CN2CCC(NC(=O)[C@](O)(c3ccccc3)[C@@H]3CCC(F)(F)C3)CC2)c1.Cl.Cl [Example 21, (2R)-N-[1-(6-amino-4-methoxypyridin-2-ylmethyl)piperidin-4-yl]-2-[(1R)-3,3-difluorocyclopentyl]-2-hydroxy-2-phenylacetamide dihydrochloride] | 50000 | 22 | 2300 |  |  |  | 
